Laboratory results as given in ChEMBL document CHEMBL1201862, “PubChem BioAssay data set” (2004).
The source made the active and inactive calls.

Key:
[1] = target: T1, Short transient receptor potential channel 4 (Mus musculus, UniProt Q9QUQ5); assay: mouse TRPC4 channel activators, dose response, cell-based, HEK293 TRPC4/mu-opioid, Fluo-4 calcium (AID 434937); type: functional
T1 sequence (Q9QUQ5 whole entry): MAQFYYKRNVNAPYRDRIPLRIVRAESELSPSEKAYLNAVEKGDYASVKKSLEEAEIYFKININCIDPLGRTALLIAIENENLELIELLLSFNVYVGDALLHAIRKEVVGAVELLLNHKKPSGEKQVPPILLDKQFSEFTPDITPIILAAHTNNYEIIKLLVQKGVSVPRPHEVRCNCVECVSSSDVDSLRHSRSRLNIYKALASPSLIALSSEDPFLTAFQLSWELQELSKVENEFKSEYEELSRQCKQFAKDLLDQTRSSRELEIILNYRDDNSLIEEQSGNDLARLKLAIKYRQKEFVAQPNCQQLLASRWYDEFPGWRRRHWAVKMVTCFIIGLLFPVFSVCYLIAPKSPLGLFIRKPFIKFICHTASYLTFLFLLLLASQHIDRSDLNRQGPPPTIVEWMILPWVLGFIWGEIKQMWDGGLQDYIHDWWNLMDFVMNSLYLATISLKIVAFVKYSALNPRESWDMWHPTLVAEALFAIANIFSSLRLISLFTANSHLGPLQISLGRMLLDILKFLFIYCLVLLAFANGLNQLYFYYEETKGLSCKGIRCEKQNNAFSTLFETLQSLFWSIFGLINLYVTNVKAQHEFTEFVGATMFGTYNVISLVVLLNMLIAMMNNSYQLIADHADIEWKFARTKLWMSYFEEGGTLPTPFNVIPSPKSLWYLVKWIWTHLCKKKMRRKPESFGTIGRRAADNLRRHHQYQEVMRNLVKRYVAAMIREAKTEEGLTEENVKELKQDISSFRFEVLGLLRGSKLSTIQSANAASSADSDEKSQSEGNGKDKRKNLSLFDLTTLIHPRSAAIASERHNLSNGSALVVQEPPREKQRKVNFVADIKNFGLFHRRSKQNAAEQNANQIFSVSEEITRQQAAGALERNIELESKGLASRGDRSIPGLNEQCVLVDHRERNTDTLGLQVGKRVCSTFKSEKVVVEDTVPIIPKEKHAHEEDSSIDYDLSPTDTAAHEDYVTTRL

[2] = HEp-2 cell cytotoxicity, dose response, cytotoxicity control for RSV inhibitor project, HTS (AID 2410); type: functional; conditions: human respiratory syncytial virus
HEK293 [3] = assay: NOD2 signaling inhibitors in MDP-stimulated cells, cell-based, uHTS, luminescence (AID 2001); type: functional; conditions: Homo sapiens
HEK293 [4] = assay: cells; type: functional, cell-based; conditions: Homo sapiens
HEK293 [5] = assay: cells; type: functional, cell-based; conditions: Homo sapiens; remark: listed apart in the source
[6] = Luminescence Cell-Based Dose Retest to Confirm Inhibitors of Cancer Stem Cells. [Related pubchem assays (depositor defined):AID2717, AID2721]; type: functional; conditions: Homo sapiens
HEK293 [7] = assay: NOD1 signaling inhibitors, primary screen, cell-based, luminescence, uHTS (AID 1578); type: functional; conditions: Homo sapiens
[8] = target: Nucleotide-binding oligomerization domain-containing protein 2 (Homo sapiens, UniProt Q9HC29); assay: NOD2 signaling inhibitors, cell-based, luminescence, uHTS, HEK293 (AID 1566); type: functional
HEK293 [9] = assay: cells; type: functional, cell-based; conditions: Homo sapiens; remark: listed apart in the source
H9c2 = assay: cells; type: functional, cell-based; conditions: Rattus norvegicus, H9c2, Myocardium;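 note: confirmatory concentration-response retest of ultra-high-throughput screening hits for modulation of myocardial damage; cell death induced by hydrogen peroxide oxidative stress; compound pretreatment for 60 min then peroxide exposure for 2 h; potency is for protecting the cells against peroxide damage rather than for killing them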
[10] = target: T2, Microphthalmia-associated transcription factor (Homo sapiens, UniProt O75030); assay: TRPM1 promoter luciferase signal decrease, dose response, MITF inhibitor project, cell-based, SK-MEL-5, cherry-picked, set 3 (AID 493073); type: functional
T2 sequence (O75030 whole entry): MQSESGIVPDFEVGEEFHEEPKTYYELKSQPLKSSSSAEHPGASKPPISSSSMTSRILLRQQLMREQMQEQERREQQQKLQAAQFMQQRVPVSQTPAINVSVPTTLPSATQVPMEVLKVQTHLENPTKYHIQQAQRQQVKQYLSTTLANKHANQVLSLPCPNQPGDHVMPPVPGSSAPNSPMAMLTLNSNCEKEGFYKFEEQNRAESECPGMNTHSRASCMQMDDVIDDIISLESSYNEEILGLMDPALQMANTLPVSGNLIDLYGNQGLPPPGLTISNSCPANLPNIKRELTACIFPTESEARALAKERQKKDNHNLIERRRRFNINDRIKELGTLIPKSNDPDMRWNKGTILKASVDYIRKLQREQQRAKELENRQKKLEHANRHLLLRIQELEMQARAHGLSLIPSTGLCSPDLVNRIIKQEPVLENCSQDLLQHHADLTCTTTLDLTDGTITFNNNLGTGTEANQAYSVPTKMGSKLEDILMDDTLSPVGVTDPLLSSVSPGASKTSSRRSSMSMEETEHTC

[11] = target: Luciferin 4-monooxygenase (Photinus pyralis, UniProt P08659); assay: firefly luciferase enzyme inhibitors, dose response, biochemical, luminescence (AID 1891)
[12] = Luminescence Cell-Based Dose Confirmation HTS to Identify Inhibitors of Platelet Dense Granule Release. [Related pubchem assays: 1663 (Primary HTS), 1678 (Summary of Project)]; type: functional
[13] = target: T3, High affinity choline transporter 1 (Homo sapiens, UniProt Q9GZV3); assay: CHT inhibitors, dose response, cell-based, 10-point CRC, membrane potential dye (AID 588401); type: functional;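 note: membrane potential dye fluorescence of choline-evoked depolarization via CHT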
T3 sequence (Q9GZV3 whole entry): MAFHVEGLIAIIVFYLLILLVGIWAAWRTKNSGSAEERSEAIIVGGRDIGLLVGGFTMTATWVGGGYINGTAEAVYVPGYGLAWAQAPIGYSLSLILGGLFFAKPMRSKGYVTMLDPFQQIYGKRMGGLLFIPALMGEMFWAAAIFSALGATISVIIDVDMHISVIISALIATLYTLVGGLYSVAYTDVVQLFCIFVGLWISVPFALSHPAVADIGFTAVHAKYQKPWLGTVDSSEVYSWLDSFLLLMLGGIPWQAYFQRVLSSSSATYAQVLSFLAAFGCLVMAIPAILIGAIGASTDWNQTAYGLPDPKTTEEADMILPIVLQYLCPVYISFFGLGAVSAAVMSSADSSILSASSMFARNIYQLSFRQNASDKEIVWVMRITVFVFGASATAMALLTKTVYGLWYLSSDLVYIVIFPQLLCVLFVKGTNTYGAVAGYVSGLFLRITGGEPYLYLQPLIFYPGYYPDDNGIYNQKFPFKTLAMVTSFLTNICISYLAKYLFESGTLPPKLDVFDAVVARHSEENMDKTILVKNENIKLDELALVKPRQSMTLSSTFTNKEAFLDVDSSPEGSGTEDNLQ

[14] = target: T4, Eukaryotic translation initiation factor 2-alpha kinase 3 (Homo sapiens, UniProt Q9NZJ5); assay: Dose response cell-based high-throughput screening assay to measure PERK inhibition. [Related pubchem assays: 1416 ]; type: functional
T4 sequence (Q9NZJ5 whole entry): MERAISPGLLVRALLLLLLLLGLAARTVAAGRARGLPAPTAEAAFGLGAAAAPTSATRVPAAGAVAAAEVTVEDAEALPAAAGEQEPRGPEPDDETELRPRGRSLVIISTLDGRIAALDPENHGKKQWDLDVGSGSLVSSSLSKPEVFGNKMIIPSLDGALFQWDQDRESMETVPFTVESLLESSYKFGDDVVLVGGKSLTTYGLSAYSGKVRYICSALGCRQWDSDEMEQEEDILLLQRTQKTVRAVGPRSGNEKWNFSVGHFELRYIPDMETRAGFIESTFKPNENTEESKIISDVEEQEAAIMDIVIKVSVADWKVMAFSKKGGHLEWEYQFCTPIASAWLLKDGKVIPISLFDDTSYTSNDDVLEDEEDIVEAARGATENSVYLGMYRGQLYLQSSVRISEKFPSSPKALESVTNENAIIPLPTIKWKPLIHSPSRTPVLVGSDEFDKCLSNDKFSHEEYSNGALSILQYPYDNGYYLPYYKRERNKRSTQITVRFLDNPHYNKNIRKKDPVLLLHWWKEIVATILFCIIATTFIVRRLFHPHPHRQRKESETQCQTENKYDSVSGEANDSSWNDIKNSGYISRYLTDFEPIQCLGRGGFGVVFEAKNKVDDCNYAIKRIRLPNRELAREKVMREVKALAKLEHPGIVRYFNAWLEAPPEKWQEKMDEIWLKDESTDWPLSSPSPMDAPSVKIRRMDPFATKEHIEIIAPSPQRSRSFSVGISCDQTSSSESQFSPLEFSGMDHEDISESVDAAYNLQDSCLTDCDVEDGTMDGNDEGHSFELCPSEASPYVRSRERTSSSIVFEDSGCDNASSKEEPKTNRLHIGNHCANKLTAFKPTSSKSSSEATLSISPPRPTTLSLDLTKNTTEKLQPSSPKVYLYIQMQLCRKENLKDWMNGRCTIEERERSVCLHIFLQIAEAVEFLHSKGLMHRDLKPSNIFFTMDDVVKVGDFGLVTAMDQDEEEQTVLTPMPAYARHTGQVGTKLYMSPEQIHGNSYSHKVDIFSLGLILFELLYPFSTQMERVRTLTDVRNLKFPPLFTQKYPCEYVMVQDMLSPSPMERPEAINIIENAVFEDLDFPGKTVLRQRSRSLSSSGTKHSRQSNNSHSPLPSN

[15] = target: T4, Eukaryotic translation initiation factor 2-alpha kinase 3; assay: Counterscreen assay for PERK inhibitors: Dose response cell-based high throughput screening assay to measure inhibition of PERK at 6 hours. [Related pubchem assays: 1522, 1416 ]; type: functional
[16] = target: T3, High affinity choline transporter 1; assay: CHT inhibitors, dose response, cell-based, 5-point CRC, membrane potential dye (AID 504840); type: functional
[17] = target: T5, Voltage-gated N-type calcium channel alpha-1B subunit/Amyloid beta A4 precursor protein-binding family A member 1 (Homo sapiens, UniProt Q00975+Q02410); type: protein assay
[18] = HeLa cell cytotoxicity, dose response, cytotoxicity control for MgcRacGAP inhibitor project (AID 624300); type: functional
[19] = target: T5, Voltage-gated N-type calcium channel alpha-1B subunit/Amyloid beta A4 precursor protein-binding family A member 1; type: protein assay; remark: listed apart in the source
[20] = target: T6, Rac GTPase-activating protein 1 (Homo sapiens, UniProt Q9H0H5); assay: MgcRacGAP GTPase-activating activity inhibitors, confirmation, biochemical, ADP Hunter fluorescence, primary and confirmatory (AID 624330); type: functional
T6 sequence (Q9H0H5 whole entry): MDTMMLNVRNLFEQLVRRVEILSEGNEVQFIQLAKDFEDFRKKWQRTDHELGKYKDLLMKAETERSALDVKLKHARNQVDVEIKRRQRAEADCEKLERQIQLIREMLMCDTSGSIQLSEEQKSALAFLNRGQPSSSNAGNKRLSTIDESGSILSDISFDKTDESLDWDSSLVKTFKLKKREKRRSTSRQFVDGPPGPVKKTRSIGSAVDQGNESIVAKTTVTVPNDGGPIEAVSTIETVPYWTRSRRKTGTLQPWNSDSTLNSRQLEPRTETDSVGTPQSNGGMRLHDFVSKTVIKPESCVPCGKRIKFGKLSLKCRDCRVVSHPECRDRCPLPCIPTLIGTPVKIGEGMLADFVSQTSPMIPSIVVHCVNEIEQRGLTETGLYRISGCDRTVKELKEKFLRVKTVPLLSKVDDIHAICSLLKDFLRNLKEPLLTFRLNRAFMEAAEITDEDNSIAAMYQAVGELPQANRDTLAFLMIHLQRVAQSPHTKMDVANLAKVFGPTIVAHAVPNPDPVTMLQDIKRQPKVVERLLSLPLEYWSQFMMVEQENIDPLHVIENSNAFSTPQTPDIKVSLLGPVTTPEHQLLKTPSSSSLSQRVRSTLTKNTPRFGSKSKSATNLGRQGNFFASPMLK

T5 sequence (Q00975 whole entry): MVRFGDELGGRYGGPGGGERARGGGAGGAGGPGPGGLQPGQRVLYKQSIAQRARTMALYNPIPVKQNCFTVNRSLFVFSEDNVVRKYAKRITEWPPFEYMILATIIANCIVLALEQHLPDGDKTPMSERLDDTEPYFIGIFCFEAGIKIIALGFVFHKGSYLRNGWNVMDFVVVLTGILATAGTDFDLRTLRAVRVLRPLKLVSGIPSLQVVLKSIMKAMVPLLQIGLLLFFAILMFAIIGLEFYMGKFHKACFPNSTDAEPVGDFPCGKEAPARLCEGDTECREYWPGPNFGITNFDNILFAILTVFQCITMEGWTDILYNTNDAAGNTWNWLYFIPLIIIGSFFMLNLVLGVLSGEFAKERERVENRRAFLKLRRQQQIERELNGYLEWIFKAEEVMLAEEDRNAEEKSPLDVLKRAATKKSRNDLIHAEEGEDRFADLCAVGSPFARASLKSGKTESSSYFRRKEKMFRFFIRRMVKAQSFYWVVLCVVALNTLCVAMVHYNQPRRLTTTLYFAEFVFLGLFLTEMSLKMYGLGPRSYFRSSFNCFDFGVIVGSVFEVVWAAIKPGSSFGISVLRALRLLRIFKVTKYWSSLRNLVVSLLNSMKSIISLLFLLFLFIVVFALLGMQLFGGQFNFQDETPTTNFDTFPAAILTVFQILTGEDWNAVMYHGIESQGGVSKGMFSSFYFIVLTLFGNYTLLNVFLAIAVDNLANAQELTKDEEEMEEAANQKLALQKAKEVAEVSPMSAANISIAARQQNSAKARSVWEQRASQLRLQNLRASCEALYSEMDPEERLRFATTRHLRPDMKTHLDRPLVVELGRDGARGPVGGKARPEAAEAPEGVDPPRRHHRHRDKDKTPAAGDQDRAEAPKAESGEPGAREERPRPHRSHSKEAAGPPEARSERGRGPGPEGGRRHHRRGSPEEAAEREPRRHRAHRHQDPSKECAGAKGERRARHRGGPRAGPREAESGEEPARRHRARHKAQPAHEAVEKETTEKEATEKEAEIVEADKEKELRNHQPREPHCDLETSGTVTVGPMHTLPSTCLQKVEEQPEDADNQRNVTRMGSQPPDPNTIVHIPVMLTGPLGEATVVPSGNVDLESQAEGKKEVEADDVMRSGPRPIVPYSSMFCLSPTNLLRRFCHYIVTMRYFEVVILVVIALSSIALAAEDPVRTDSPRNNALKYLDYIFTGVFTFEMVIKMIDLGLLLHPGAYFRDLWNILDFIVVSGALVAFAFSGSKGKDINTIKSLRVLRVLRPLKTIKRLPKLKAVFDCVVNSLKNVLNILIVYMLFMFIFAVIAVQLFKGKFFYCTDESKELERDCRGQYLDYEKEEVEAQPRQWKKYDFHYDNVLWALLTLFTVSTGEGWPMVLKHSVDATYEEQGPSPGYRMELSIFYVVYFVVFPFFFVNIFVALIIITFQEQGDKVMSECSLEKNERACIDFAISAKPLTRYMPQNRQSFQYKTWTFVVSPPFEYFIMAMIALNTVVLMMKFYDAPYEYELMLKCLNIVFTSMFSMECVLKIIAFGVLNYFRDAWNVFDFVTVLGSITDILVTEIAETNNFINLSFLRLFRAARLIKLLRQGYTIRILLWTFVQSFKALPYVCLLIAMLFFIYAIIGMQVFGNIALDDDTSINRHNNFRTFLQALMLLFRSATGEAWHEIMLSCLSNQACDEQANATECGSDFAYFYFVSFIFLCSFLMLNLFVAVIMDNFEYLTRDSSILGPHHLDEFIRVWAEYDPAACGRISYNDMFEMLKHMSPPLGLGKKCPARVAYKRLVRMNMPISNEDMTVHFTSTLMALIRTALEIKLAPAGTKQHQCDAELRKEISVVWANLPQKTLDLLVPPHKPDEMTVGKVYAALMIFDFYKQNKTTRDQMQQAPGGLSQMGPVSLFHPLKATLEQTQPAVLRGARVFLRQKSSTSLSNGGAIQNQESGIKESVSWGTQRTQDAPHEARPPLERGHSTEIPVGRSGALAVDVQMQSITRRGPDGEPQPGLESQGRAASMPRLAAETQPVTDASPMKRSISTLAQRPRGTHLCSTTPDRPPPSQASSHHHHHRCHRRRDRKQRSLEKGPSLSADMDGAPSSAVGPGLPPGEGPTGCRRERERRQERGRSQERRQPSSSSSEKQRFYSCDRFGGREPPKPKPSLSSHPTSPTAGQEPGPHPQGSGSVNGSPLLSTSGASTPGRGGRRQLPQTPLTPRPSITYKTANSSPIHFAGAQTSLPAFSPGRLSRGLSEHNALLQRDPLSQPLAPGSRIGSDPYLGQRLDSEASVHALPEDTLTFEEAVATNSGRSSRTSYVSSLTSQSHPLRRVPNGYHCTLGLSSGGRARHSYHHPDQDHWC
T5 sequence (Q02410 whole entry): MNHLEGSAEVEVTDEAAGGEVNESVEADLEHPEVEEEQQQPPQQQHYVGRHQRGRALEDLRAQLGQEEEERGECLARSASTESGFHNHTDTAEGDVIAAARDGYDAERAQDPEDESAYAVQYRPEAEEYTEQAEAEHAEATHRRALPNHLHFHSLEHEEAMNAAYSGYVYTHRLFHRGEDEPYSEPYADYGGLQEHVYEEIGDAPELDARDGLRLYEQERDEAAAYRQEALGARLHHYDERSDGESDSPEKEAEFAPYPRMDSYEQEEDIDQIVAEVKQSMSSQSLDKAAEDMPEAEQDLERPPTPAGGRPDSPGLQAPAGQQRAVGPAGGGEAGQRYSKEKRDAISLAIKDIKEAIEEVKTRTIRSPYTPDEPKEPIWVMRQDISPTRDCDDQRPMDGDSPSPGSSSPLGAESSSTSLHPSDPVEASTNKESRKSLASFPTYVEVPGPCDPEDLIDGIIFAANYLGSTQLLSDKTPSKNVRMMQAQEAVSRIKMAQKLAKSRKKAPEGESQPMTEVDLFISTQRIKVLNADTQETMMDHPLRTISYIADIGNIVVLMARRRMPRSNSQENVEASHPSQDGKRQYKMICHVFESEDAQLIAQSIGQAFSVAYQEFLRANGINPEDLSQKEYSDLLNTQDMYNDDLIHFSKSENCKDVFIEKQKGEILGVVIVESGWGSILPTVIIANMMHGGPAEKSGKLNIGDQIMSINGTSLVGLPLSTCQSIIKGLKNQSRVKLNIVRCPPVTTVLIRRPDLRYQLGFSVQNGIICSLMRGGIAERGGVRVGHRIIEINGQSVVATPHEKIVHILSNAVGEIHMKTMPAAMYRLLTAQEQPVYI
Chain of Nucleotide-binding oligomerization domain-containing protein 2 (Q9HC29 whole entry, the tested form may be a part): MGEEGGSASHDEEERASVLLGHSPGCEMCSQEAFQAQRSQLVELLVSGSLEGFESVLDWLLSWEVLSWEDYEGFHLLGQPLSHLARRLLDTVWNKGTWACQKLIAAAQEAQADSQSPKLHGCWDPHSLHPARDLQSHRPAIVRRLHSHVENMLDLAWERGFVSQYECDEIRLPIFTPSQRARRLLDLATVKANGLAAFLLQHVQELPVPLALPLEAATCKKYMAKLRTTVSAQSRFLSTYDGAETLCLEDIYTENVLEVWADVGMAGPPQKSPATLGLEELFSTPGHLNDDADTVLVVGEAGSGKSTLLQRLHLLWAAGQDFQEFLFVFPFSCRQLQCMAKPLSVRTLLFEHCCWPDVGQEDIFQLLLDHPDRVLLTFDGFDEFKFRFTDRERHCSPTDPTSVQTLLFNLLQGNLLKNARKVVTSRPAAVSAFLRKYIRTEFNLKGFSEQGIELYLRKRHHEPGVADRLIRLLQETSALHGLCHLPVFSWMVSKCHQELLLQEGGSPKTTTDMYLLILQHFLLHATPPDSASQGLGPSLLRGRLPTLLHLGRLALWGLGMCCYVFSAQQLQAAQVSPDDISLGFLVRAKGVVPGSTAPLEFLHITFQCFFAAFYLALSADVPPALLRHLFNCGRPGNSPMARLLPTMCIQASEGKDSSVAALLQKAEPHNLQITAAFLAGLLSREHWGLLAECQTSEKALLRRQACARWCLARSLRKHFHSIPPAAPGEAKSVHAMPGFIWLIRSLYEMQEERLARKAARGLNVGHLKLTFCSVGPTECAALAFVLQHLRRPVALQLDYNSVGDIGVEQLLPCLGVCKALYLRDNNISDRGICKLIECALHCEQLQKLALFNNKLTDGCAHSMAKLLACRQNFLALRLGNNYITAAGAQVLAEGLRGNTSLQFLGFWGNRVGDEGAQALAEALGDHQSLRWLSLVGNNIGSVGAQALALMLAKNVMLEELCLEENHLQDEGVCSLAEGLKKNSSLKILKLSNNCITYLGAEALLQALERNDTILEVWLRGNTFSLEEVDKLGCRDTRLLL
Chain of Luciferin 4-monooxygenase (P08659 whole entry): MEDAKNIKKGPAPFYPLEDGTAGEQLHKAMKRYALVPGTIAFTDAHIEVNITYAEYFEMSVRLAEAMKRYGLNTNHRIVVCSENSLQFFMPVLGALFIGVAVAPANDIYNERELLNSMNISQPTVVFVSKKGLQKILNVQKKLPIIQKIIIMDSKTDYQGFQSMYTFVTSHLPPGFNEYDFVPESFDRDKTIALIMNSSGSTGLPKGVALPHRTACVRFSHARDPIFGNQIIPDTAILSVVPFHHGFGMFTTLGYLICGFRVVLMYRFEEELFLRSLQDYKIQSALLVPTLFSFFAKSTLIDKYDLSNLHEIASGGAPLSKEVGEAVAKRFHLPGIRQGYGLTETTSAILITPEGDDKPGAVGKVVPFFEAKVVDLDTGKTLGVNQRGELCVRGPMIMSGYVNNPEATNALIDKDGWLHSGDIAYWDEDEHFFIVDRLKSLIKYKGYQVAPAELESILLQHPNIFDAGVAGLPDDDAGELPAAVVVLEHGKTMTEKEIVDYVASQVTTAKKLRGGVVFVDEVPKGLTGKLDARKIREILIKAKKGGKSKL

CC(C)(C)c1cc(O)c(C(C)(C)C)cc1O
IC50 (cells): 37.2 µM (active) | EC50 [1]: 0.376 µM (active) | CC50 [2]: > 50 µM (active)

COc1cc(Br)cc(/C=C/c2ccc3cccc(O)c3n2)c1O
IC50 (HEK293 [3]): 6.96 µM (inactive) | IC50 (HEK293 [4]): > 20 µM (inactive) | IC50 (HEK293 [5]): > 20 µM (inactive) | AC50 [6]: 1.44 µM (active) | EC50 (HEK293 [7]): 5.78 µM (active) | EC50 [8]: > 20 µM (inactive) | IC50 (HEK293 [9]): 8.18 µM (active)

CCN1CCN(c2ccc(S(=O)(=O)N3CCCCC3)cc2NC(=O)c2cccc(C)c2[N+](=O)[O-])CC1
EC50 [1]: 2.99 µM (active)

COc1ccc2cc3cc(C(=O)NCCc4ccc(OC)c(OC)c4)oc3nc2c1
IC50 (HEK293 [3]): 5.18 µM (active) | IC50 (H9c2): > 79 µM (inactive) | IC50 (HEK293 [4]): 18.9 µM (active) | IC50 (HEK293 [5]): > 20 µM (inactive) | EC50 (HEK293 [7]): 9.01 µM (active) | EC50 [8]: 7.83 µM (active) | AC50 [10]: 16.2 µM (active) | IC50 (HEK293 [9]): 4.8 µM (active)

Nc1nc(Cl)nc2c1ncn2[C@@H]1O[C@H](CO)[C@@H](O)[C@H]1O
EC50 [11]: > 112 µM (not active) | EC50 [12]: < 0.701 µM (active) | IC50 [13]: 0.336 µM (active) | EC50 [14]: > 55.7 µM (not active) | EC50 [15]: > 55.7 µM (not active) | IC50 [16]: 0.74 µM (active)

COc1cc(/C=C/c2nc3ccccc3c(=O)n2-c2ccccc2O)ccc1O
IC50 (H9c2): 9.09 µM (active) | IC50 [17]: > 56.8 µM (not active) | CC50 [18]: 94 µM (active) | IC50 [19]: > 50 µM (inactive) | IC50 [20]: 40.6 µM (active)
